Test results from US11426375B2, “Substituted bisphenyl butanoic ester derivatives as NEP inhibitors” (NOVARTIS AG, priority 2019, dated 2022).

System: DSS (Dahl Salt Sensitive) rats
Experiment: In vivo efficacy study on blood pressure in DSS rats (telemetry; systolic and diastolic pressure)
Settings: for Systolic blood pressure, mean: Compound I-1 50 mg/kg, alone or combined, QD PO
Excerpt: An in vivo study ascertains the effects on blood pressure in DSS (Dahl Salt Sensitive) rats. The DSS hypertensive rat model is a model of hypertension that is sensitive to dietary salt (NaCl), see for example Rapp (1982) Hypertension 4:753-763 and Hegde et al. BMC Pharmacology 2011, 11 (Suppl 1):P33. Under pentobarbital sodium anesthesia, a DSI (Data Sciences International, St. Paul, Minn.) telemetric probe is implanted. The transducer is inserted into abdominal aorta, and the transmitter is implanted into abdominal cavity. During postoperative recovery period, close observation is performed. Analgesics (Buprenorphine, 0.1-0.5 mg/kg, once per day for 1 day) and preventive antibiotics (Cephradine, 10˜15 mg/kg, ip., once per day for 3 days) are administered on a daily basis. Before the treatment period, all animals are fed with 8% high salt food for about 2 weeks. Test compound is formulated in 0.5% HPC and administered by oral gavage. Five groups of animals are treated as follows: 1. Vehicle, 0.5% HPC, QD, PO, N=5 2. Valsartan, 30 mg/kg, QD, PO, N=5 3. Compound I-1, 50 mg/kg, QD, PO, N=6 4. Compound I-1, 15 mg/kg+Valsartan, 30 mg/kg, QD, PO, N=5 5. Compound I-1, 50 mg/kg+Valsartan, 30 mg/kg, QD, PO, N=5 N is the number of animals. The mean arterial pressure, systolic pressure, diastolic pressure and heart rate after administration for each animal are measured. Interim results obtained before full study completion are shown in Tables 18 and 19 (full cohort of animals beyond day 7 were reduced due to some loss). Mean measurements of the systolic (Table 18) and diastolic (Table 19) blood pressures, for the baseline day prior to first treatment and for treatment days 1 and 7 only, in each treatment group, are shown. Measurements obtained every other hour only are shown.

In the case of CCCCC(=O)N(Cc1ccc(-c2ccccc2-c2nnn[nH]2)cc1)[C@H](C(=O)O)C(C)C [Valsartan, valsartan], the “Systolic blood pressure, mean” value (Baseline day prior to first treatment, Hour 1, groups Valsartan 30 mg/kg) is reported as 157.31, the “Systolic blood pressure, mean” value (Baseline day prior to first treatment, Hour 3, groups Valsartan 30 mg/kg) is reported as 154.77 and the “Systolic blood pressure, mean” value (Baseline day prior to first treatment, Hour 5, groups Valsartan 30 mg/kg) is reported as 151.17. The “Systolic blood pressure, mean” value (Baseline day prior to first treatment, Hour 7, groups Valsartan 30 mg/kg) was 154.26, the “Systolic blood pressure, mean” value (Baseline day prior to first treatment, Hour 9, groups Valsartan 30 mg/kg) was 160.88 and the “Systolic blood pressure, mean” value (Baseline day prior to first treatment, Hour 11, groups Valsartan 30 mg/kg) was 163.83. For the same compound, the “Systolic blood pressure, mean” value (Baseline day prior to first treatment, Hour 13, groups Valsartan 30 mg/kg) was 164.35, the “Systolic blood pressure, mean” value (Baseline day prior to first treatment, Hour 15, groups Valsartan 30 mg/kg) was 163.94 and the “Systolic blood pressure, mean” value (Baseline day prior to first treatment, Hour 17, groups Valsartan 30 mg/kg) was 164.12. For the same compound, the “Systolic blood pressure, mean” value (Baseline day prior to first treatment, Hour 19, groups Valsartan 30 mg/kg) was 166.66, the “Systolic blood pressure, mean” value (Baseline day prior to first treatment, Hour 21, groups Valsartan 30 mg/kg) was 166.05 and the “Systolic blood pressure, mean” value (Baseline day prior to first treatment, Hour 23, groups Valsartan 30 mg/kg) was 162.95. The “effect on blood pressure” value (DSS rats, as compared to animals treated with vehicle alone, interim results) was “trend for lower blood pressure”, the “Systolic blood pressure, mean” value (Dosing day 1, Hour 1, Valsartan 30 mg/kg) was 159.22 and the “Systolic blood pressure, mean” value (Dosing day 1, Hour 3, Valsartan 30 mg/kg) was 149.24. The “Systolic blood pressure, mean” value (Dosing day 1, Hour 5, Valsartan 30 mg/kg) was 152.75, the “Systolic blood pressure, mean” value (Dosing day 1, Hour 7, Valsartan 30 mg/kg) was 160.54 and the “Systolic blood pressure, mean” value (Dosing day 1, Hour 9, Valsartan 30 mg/kg) was 165.09. For the same compound, the “Systolic blood pressure, mean” value (Dosing day 1, Hour 11, Valsartan 30 mg/kg) was 166.16, the “Systolic blood pressure, mean” value (Dosing day 1, Hour 13, Valsartan 30 mg/kg) was 162.84 and the “Systolic blood pressure, mean” value (Dosing day 1, Hour 15, Valsartan 30 mg/kg) was 162.88. For the same compound, the “Systolic blood pressure, mean” value (Dosing day 1, Hour 17, Valsartan 30 mg/kg) was 169.80, the “Systolic blood pressure, mean” value (Dosing day 1, Hour 19, Valsartan 30 mg/kg) was 162.27 and the “Systolic blood pressure, mean” value (Dosing day 1, Hour 21, Valsartan 30 mg/kg) was 163.01. The “Systolic blood pressure, mean” value (Dosing day 1, Hour 23, Valsartan 30 mg/kg) was 155.05, the “Systolic blood pressure, mean” value (Dosing day 7, Hour 1, Valsartan 30 mg/kg) was 165.60 and the “Systolic blood pressure, mean” value (Dosing day 7, Hour 3, Valsartan 30 mg/kg) was 143.04. The “Systolic blood pressure, mean” value (Dosing day 7, Hour 5, Valsartan 30 mg/kg) was 142.52, the “Systolic blood pressure, mean” value (Dosing day 7, Hour 7, Valsartan 30 mg/kg) was 153.17 and the “Systolic blood pressure, mean” value (Dosing day 7, Hour 9, Valsartan 30 mg/kg) was 170.26. The “Systolic blood pressure, mean” value (Dosing day 7, Hour 11, Valsartan 30 mg/kg) was 173.95, the “Systolic blood pressure, mean” value (Dosing day 7, Hour 13, Valsartan 30 mg/kg) was 175.24 and the “Systolic blood pressure, mean” value (Dosing day 7, Hour 15, Valsartan 30 mg/kg) was 177.02. For the same compound, the “Systolic blood pressure, mean” value (Dosing day 7, Hour 17, Valsartan 30 mg/kg) was 176.02, the “Systolic blood pressure, mean” value (Dosing day 7, Hour 19, Valsartan 30 mg/kg) was 176.83 and the “Systolic blood pressure, mean” value (Dosing day 7, Hour 21, Valsartan 30 mg/kg) was 164.22. For the same compound, the “Systolic blood pressure, mean” value (Dosing day 7, Hour 23, Valsartan 30 mg/kg) was 163.41, the “Diastolic blood pressure, Mean” value (Valsartan 30 mg/kg, Baseline day, Hour 1) was 106.03 and the “Diastolic blood pressure, Mean” value (Valsartan 30 mg/kg, Baseline day, Hour 3) was 102.82. For the same compound, the “Diastolic blood pressure, Mean” value (Valsartan 30 mg/kg, Baseline day, Hour 5) was 100.19, the “Diastolic blood pressure, Mean” value (Valsartan 30 mg/kg, Baseline day, Hour 7) was 103.02 and the “Diastolic blood pressure, Mean” value (Valsartan 30 mg/kg, Baseline day, Hour 9) was 110.48. For the same compound, the “Diastolic blood pressure, Mean” value (Valsartan 30 mg/kg, Baseline day, Hour 11) was 114.29, the “Diastolic blood pressure, Mean” value (Valsartan 30 mg/kg, Baseline day, Hour 13) was 115.22 and the “Diastolic blood pressure, Mean” value (Valsartan 30 mg/kg, Baseline day, Hour 15) was 113.98. The “Diastolic blood pressure, Mean” value (Valsartan 30 mg/kg, Baseline day, Hour 17) was 114.14, the “Diastolic blood pressure, Mean” value (Valsartan 30 mg/kg, Baseline day, Hour 19) was 116.35 and the “Diastolic blood pressure, Mean” value (Valsartan 30 mg/kg, Baseline day, Hour 21) was 116.78. For the same compound, the “Diastolic blood pressure, Mean” value (Valsartan 30 mg/kg, Baseline day, Hour 23) was 111.79, the “Diastolic blood pressure, Mean” value (Valsartan 30 mg/kg, Dosing day 1, Hour 1) was 107.73 and the “Diastolic blood pressure, Mean” value (Valsartan 30 mg/kg, Dosing day 1, Hour 3) was 101.25. The “Diastolic blood pressure, Mean” value (Valsartan 30 mg/kg, Dosing day 1, Hour 5) was 98.63, the “Diastolic blood pressure, Mean” value (Valsartan 30 mg/kg, Dosing day 1, Hour 7) was 100.29 and the “Diastolic blood pressure, Mean” value (Valsartan 30 mg/kg, Dosing day 1, Hour 9) was 109.35. For the same compound, the “Diastolic blood pressure, Mean” value (Valsartan 30 mg/kg, Dosing day 1, Hour 11) was 115.04, the “Diastolic blood pressure, Mean” value (Valsartan 30 mg/kg, Dosing day 1, Hour 13) was 116.06 and the “Diastolic blood pressure, Mean” value (Valsartan 30 mg/kg, Dosing day 1, Hour 15) was 113.61. The “Diastolic blood pressure, Mean” value (Valsartan 30 mg/kg, Dosing day 1, Hour 17) was 112.82, the “Diastolic blood pressure, Mean” value (Valsartan 30 mg/kg, Dosing day 1, Hour 19) was 119.69 and the “Diastolic blood pressure, Mean” value (Valsartan 30 mg/kg, Dosing day 1, Hour 21) was 112.65. For the same compound, the “Diastolic blood pressure, Mean” value (Valsartan 30 mg/kg, Dosing day 1, Hour 23) was 112.26, the “Diastolic blood pressure, Mean” value (Valsartan 30 mg/kg, Dosing day 7, Hour 1) was 113.86 and the “Diastolic blood pressure, Mean” value (Valsartan 30 mg/kg, Dosing day 7, Hour 3) was 94.17. For the same compound, the “Diastolic blood pressure, Mean” value (Valsartan 30 mg/kg, Dosing day 7, Hour 5) was 93.33, the “Diastolic blood pressure, Mean” value (Valsartan 30 mg/kg, Dosing day 7, Hour 7) was 102.69 and the “Diastolic blood pressure, Mean” value (Valsartan 30 mg/kg, Dosing day 7, Hour 9) was 117.65. The “Diastolic blood pressure, Mean” value (Valsartan 30 mg/kg, Dosing day 7, Hour 11) was 123.73, the “Diastolic blood pressure, Mean” value (Valsartan 30 mg/kg, Dosing day 7, Hour 13) was 125.63 and the “Diastolic blood pressure, Mean” value (Valsartan 30 mg/kg, Dosing day 7, Hour 15) was 126.20. For the same compound, the “Diastolic blood pressure, Mean” value (Valsartan 30 mg/kg, Dosing day 7, Hour 17) was 124.23, the “Diastolic blood pressure, Mean” value (Valsartan 30 mg/kg, Dosing day 7, Hour 19) was 127.67 and the “Diastolic blood pressure, Mean” value (Valsartan 30 mg/kg, Dosing day 7, Hour 21) was 112.77. The “Diastolic blood pressure, Mean” value (Valsartan 30 mg/kg, Dosing day 7, Hour 23) was 112.12.
